This is an account of results in patent publication US9580426B2, “Compounds that expand hematopoietic stem cells” (Novartis AG, priority 2008, dated 2017).

Structures are written as SMILES. Where a name gives a salt, the structure may show the parent alone.

The test system of one series is Primary adult CD34+ human hematopoietic stem cells (HSCs). Briefly: % CD34+ assay: HSC expansion screen, dose response. The format is cell-based.
Conditions: not given
On the procedure:
Primary adult CD34^+ human hematopoietic stem cells (HSCs) are cultured and screened to identify compounds of the invention that facilitate HSC expansion. The cells are analyzed for the presence of the desired phenotype (CD34 expression). Compounds of the invention promote HSC expansion in a dose dependent manner.
Culture Medium: StemSpan SFEM medium is serum-free medium (StemCell Technologies, Vancouver, BC) supplemented with the following human recombinant cytokines: thrombopoietin, interleukin-6, Flt-3 ligand, and stem cell factor (all from R&D Systems, Minneapolis, Minn.), each at a final concentration of 50 ng/mL, with vehicle (DMSO) or a compound of the invention.
Human Cell Culture: Fresh human leukophoresed G-CSF mobilized peripheral blood from normal donors, CD34^+ cells from adult bone marrow and cryopreserved human cord blood CD34^+ cells are purchased from AllCells (Berkeley, Calif.). Human CD34^+ cells are enriched from leukophoresed G-CSF mobilized peripheral blood using magnetic cell sorting (MACS, Direct CD34 Progenitor Cell Isolation Kit, Miltenyi Biotec, Bergisch Gladbach, Germany) and cryopreserved. CD34^+ cell purity, checked by flow Cytometry, is higher than 90%. After thawing, the cell viability tested by trypan blue exclusion is higher than 70%. The thawed cells are centrifuged and resuspended with StemSpan medium before being aliquoted for immediate culture. Cells are plated at 10^4 cells/mL in a 384 well plate (Greiner Bio-One, Monroe, N.C.) with 50 μL of medium per well for 7 days. Every 7 days the cells are transferred to larger well plates and fresh medium is added to keep the cell density between 10^4 and 5×10^5 cells/mL. Cells were cultured at 37° C. in 5% CO2. For transplantation, cells were cultured in 75 cm^2 flasks before the cells were transplanted into mice. At a concentration of 1 micromolar, 4-(2-(2-(benzo[b]thiophen-3-yl)-9-isopropyl-9H-purin-6-ylamino)ethyl)phenol (compound 1, table 1; example 1), 4-(2-(2-(benzo[b]thiophen-3-yl)-9-sec-butyl-9H-purin-6-ylamino)ethyl)phenol (compound 2, table 1), and N-(2-(1H-indol-3-yl)ethyl)-2-(benzo[b]thiophen-3-yl)-9-isopropyl-9H-purin-6-amine (compound 9, table 1) each gives rise to a greater than 10-fold increase in the number of CD34^+ CD45RA^− cells derived from 1000 mPB CD34^+ HSCs after 21 days compared to vehicle. Compounds of the invention were assayed in a dose response format (1 nM to 10 μM) to determine the effective concentration that produced the desired effect in 50% of the cells (EC50).
Turning to `Cc1n[nH]c(C)c1CCCNc1nc(-c2csc3ccccc23)nc2c1ncn2C(C)C` [2-(benzo[b]thiophen-3-yl)-N-(3-(3,5-dimethyl-1H-pyrazol-4-yl)propyl)-9-isopropyl-9H-purin-6-amine], the “activity relative to example 1 (less active)” value is reported as approximately 20 fold.

The same series, now with this note: Homo sapiens, Hematopoietic stem cell; dose response 1 nM to 10 μM; total number and/or percent of CD34+ cells.
`CCC(C)n1cnc2c(NCCc3c[nH]c4ccccc34)nc(-c3cncc(C#N)c3)nc21` (centres unmarked) [Example 130] came in with an EC50 of 0.001 µM.
The same measure, in the same setting: for `Cc1ccc(Cn2cnc3c(NCCc4ccc(O)cc4)nc(-c4csc5ccccc45)nc32)cc1` [Example 8] the value was 6.03 µM; for `CC(C)n1cnc2c(NCCc3ccc(O)cc3F)nc(-c3cccnc3)nc21` [Example 147], 0.092 µM.
On the same count and under the same terms, as for `CC(C)n1cnc2c(NCCc3n[nH]c4ccccc34)nc(-c3cccnc3)nc21` [Example 98], the figure is 8.2 µM.
In the case of `CC(C)n1cnc2c(NCCc3ccc(O)cc3)nc(-n3cnc4ncccc43)nc21` [Example 160], the 50% effective concentration (EC50) came to 1.9 µM. Compared with the last molecule, the EC50 is about 4.3-fold lower.
In turn, `Fc1cncc(-c2nc(NCCc3c[nH]c4ccccc34)c3ncn([C@@H]4CCOC4)c3n2)c1` [Example 158] registered an EC50 of 0.012 µM.
The molecule `CCOC(=O)c1cncc(-c2nc(NCCc3ccc(O)cc3)c3ncn(C(C)C)c3n2)c1` [Example 32] registered an EC50 of 5.6 µM.
Regarding `CC(C)n1cnc2c(NCCc3cccc(O)c3)nc(-c3csc4ccccc34)nc21` [Example 11], the EC50 came out at 1.45 µM.
The same measure, in the same setting: as for `CC(C)n1cnc2c(NCCNC(N)=O)nc(-c3csc4ccccc34)nc21` [Example 89], the figure is 1.4 µM; as for `CCC(C)n1cnc2c(NCCc3ccc(O)c(C)c3)nc(-c3cncc(C#N)c3)nc21` (centres unmarked) [Example 124], 0.003 µM; as for `Oc1ccc(CCNc2nc(-c3csc4ccccc34)nc3c2ncn3Cc2ccc(C(F)(F)F)cc2)cc1` [Example 5], 2.08 µM.
Consider `Cc1n[nH]c(C)c1CCCNc1nc(-c2csc3ccccc23)nc2c1ncn2C(C)C` [Example 88], for which the EC50 came to 2.6 µM.
`Oc1ccc(CCNc2nc(-c3csc4ccccc34)nc3c2ncn3C2COC2)cc1` [Example 151] showed an EC50 of 0.17 µM. Compared with the last molecule, the EC50 is about 15-fold lower.
Regarding `CC(C)n1cnc2c(NCCNc3ccccn3)nc(-c3csc4ccccc34)nc21` [Example 83], the EC50 came to 7.1 µM.
`CC(Cc1ccc(O)cc1)Nc1nc(-c2cccnc2)nc2c1ncn2C(C)C` (centres unmarked) [Example 95]: the EC50 is 2.3 µM.
`CC(C)n1cnc2c(NCCc3ccc(O)cc3)nc(-c3cncc(Cl)c3)nc21` [Example 128, 4-(2-(2-(5-Chloropyridin-3-yl)-9-isopropyl-9H-purin-6-ylamino)ethyl)phenol] came in with a half-maximal effective concentration (EC50) of 0.019 µM.
On the same count and under the same terms, as for `CC(C)n1cnc2c(NCCc3ccc(O)cc3)nc(-c3ccnnc3)nc21` [Example 42], the figure is 0.64 µM.
Molecule `Oc1ccc(CCNc2nc(-c3cccnc3)nc3c2ncn3[C@@H]2CCOC2)cc1` [Example 93R] came in with a concentration giving a half-maximal response (EC50) of 0.52 µM.
The same measure, in the same setting: as for `CC(C)n1cnc2c(NCCc3ccc(F)cc3)nc(-c3csc4ccccc34)nc21` [Example 12], the figure is 1.76 µM.

Another series has as its system mPB-derived CD34+ cells. Briefly: Genome-wide transcriptional profiling. It is filed as cell-based, human. As to conditions: 1 μM; 24 hours. From the text:
The two genes that were the most highly repressed by treatment with Example 1 (cytochrome P450 1B1 [CYP1B1] and the aryl hydrocarbon receptor repressor [AHRR]) are transcriptionally regulated by the aryl hydrocarbon receptor (AHR). Therefore, compounds of the invention could be acting as an antagonist of AHR signaling.
With `Cc1n[nH]c(C)c1CCCNc1nc(-c2csc3ccccc23)nc2c1ncn2C(C)C` [2-(benzo[b]thiophen-3-yl)-N-(3-(3,5-dimethyl-1H-pyrazol-4-yl)propyl)-9-isopropyl-9H-purin-6-amine], the “down-regulation of 5 genes (most repressed: CYP1B1, AHRR)” value is “none were significantly affected”.

Staying with this series, now noted: 24 hours.
With `Cc1n[nH]c(C)c1CCCNc1nc(-c2csc3ccccc23)nc2c1ncn2C(C)C` [2-(benzo[b]thiophen-3-yl)-N-(3-(3,5-dimethyl-1H-pyrazol-4-yl)propyl)-9-isopropyl-9H-purin-6-amine], the “up-regulation of 5 genes of >50,000 probe sets” value is listed as “induced to some degree”.

Another series deals with CYP1B1 mRNA in mPB-derived CD34+ cells. Nature of the series: TCDD-mediated CYP1B1 mRNA expression by qPCR. It is filed as cell-based, human. As to conditions: 3 nM; vehicle 0.01% toluene. The procedure: Further, the ability of Example 1 to block 2,3,7,8-tetrachlorodibenzo-p-dioxin (TCDD, dioxin)-mediated CYP1B1 mRNA expression by qPCR in mPB-derived CD34^+ cells was determined. Treatment with TCDD (3 nM) caused a 4.5-fold increase in the level of CYP1B1 mRNA compared with the vehicle control (0.01% toluene). […] To determine the effects of Example 1 in AHR transcription the ability of Example 1 to inhibit a dioxin-induced AHR dependent luciferase reporter gene assay was tested.
On to `Clc1cc2c(cc1Cl)Oc1cc(Cl)c(Cl)cc1O2` [TCDD, 2,3,7,8-tetrachlorodibenzo-p-dioxin], for which the “increase in the level of CYP1B1 mRNA compared with vehicle control” value amounted to 4.5 fold.

A further series has as its system mPB-derived CD34+ cell. Briefly: 7 day culture with AHR antagonists, expansion of CD34+ cells. It is filed as cell-based, human. As to conditions: 0.75 μM; 7 days. On the procedure:
To further explore the role of AHR signaling in HSCs two other AHR antagonists (alpha-naphthoflavone and CH-223191) were tested. Both compounds lead to dose dependent increases in the number of CD34^+ cells when cultured with mPB-derived CD34^+ cell for 7 days: inclusion of 1 μM CH223191 afforded a 2.2-fold expansion of CD34^+ cells; 0.75 μM α-naphthoflavone afforded a 1.9-fold expansion of CD34^+ cells while 0.75 μM Example 1 afforded a 3.4-fold expansion of total CD34^+ cells. […] Forty-eight hours following transduction, CD34+GFP^+ cells were purified by cell sorting and the levels of AHR were determined by qPCR. Both AHR targeting shRNAs led to decreases in AHR expression following transduction (81% with sh111 and 51% with sh242). These decreases were not seen in cells lacking GFP or in cells transduced with control virus.
As to `O=c1cc(-c2ccccc2)oc2c1ccc1ccccc12` [α-naphthoflavone, alpha-naphthoflavone], the “expansion of CD34+ cells” value was found to be 1.9 fold.

The series is the same for the next values; noted with them: 1 μM; 7 days.
As to `Cc1ccccc1N=Nc1ccc(NC(=O)c2ccnn2C)c(C)c1` [CH223191, 2-methyl-2H-pyrazole-3-carboxylic acid (2-methyl-4-o-tolylazophenyl)amide], the “expansion of CD34+ cells” value was found to be 2.2 fold.

Test system in a further series: not listed separately
Briefly: Water uptake by thermogravimetry after exposure to relative humidity. The format is physicochemical. As to conditions: 80% rh during 24 hours. The procedure: Mesylate salt: 4-(2-(2-(benzo[b]thiophen-3-yl)-9-isopropyl-9H-purin-6-ylamino)ethyl)phenol free base (0.60 g; 1.40 mmoles) are dissolved in 12 ml acetone at 50° C. Methanesulfonic acid (0.137 g; 1.40 mmoles) is added drop wise. The crystallization takes place rapidly. The white suspension is allowed to cool over about 30 minutes with cooling to room temperature. The slurry is stirred for 18 hours at room temperature and filtered. The solid is washed with acetone (6 ml) in three portions and dried first for about 3 hours at 50° C./ca. 10 mbar and then for about 16 hours at 80° C./ca. 10 mbar. […] The water uptake was estimated by thermogravimetry after exposure to relative humidity (80% rh) during 24 hours. A water uptake of 0.4% was observed.
Regarding `CC(C)n1cnc2c(NCCc3ccc(O)cc3)nc(-c3csc4ccccc34)nc21` [Hydrochloride salt, 4-(2-(2-(benzo[b]thiophen-3-yl)-9-isopropyl-9H-purin-6-ylamino)ethyl)phenol], the water uptake is recorded as 0.3%.
Same read-out and setting: as for `CC(C)n1cnc2c(NCCc3ccc(O)cc3)nc(-c3csc4ccccc34)nc21` [Sulfate salt, 4-(2-(2-(benzo[b]thiophen-3-yl)-9-isopropyl-9H-purin-6-ylamino)ethyl)phenol], the figure is 0.2%; as for `CC(C)n1cnc2c(NCCc3ccc(O)cc3)nc(-c3csc4ccccc34)nc21` [Besylate salt, 4-(2-(2-(benzo[b]thiophen-3-yl)-9-isopropyl-9H-purin-6-ylamino)ethyl)phenol], “about 0.05%”; as for `CC(C)n1cnc2c(NCCc3ccc(O)cc3)nc(-c3csc4ccccc34)nc21` [Tosylate salt, 4-(2-(2-(benzo[b]thiophen-3-yl)-9-isopropyl-9H-purin-6-ylamino)ethyl)phenol], 0.4%.
`CC(C)n1cnc2c(NCCc3ccc(O)cc3)nc(-c3csc4ccccc34)nc21` [Esylate salt, 4-(2-(2-(benzo[b]thiophen-3-yl)-9-isopropyl-9H-purin-6-ylamino)ethyl)phenol] showed a water uptake of 0.05%.
The same measure, in the same setting: for `CC(C)n1cnc2c(NCCc3ccc(O)cc3)nc(-c3csc4ccccc34)nc21` [Napadisylate salt, 4-(2-(2-(benzo[b]thiophen-3-yl)-9-isopropyl-9H-purin-6-ylamino)ethyl)phenol] the value was “less than 0.05%”; for `CC(C)n1cnc2c(NCCc3ccc(O)cc3)nc(-c3csc4ccccc34)nc21` [Hydrobromide salt, 4-(2-(2-(benzo[b]thiophen-3-yl)-9-isopropyl-9H-purin-6-ylamino)ethyl)phenol], “No water uptake”; for `CC(C)n1cnc2c(NCCc3ccc(O)cc3)nc(-c3csc4ccccc34)nc21` [Orotate salt, 4-(2-(2-(benzo[b]thiophen-3-yl)-9-isopropyl-9H-purin-6-ylamino)ethyl)phenol], 1.7%.
Same read-out and setting: as for `CC(C)n1cnc2c(NCCc3ccc(O)cc3)nc(-c3csc4ccccc34)nc21` [Mesylate salt, 4-(2-(2-(benzo[b]thiophen-3-yl)-9-isopropyl-9H-purin-6-ylamino)ethyl)phenol], the figure is 0.4%.
On the same count and under the same terms, as for `CC(C)n1cnc2c(NCCc3ccc(O)cc3)nc(-c3csc4ccccc34)nc21` [Hemi-fumarate salt, 4-(2-(2-(benzo[b]thiophen-3-yl)-9-isopropyl-9H-purin-6-ylamino)ethyl)phenol], the figure is 0.3%.
